Assay results published in US20250163130A1, “LIGAND GATED ION CHANNELS AND METHODS OF USE” (Trames Bio, Inc., priority 2022, published 2025).

Legend:
[1] = target: T1, CODA1237 (Homo sapiens, UniProt P36544, F159M/H163T/I152M/R155K/V154L/W156N/Y151P); assay: Anion reporter (YFP quench) plate assay, ligand response of cells expressing CODA1237 compared with CODA71; assay type: cell-based; conditions: FIG. 1, various ligand doses
T1 construct: expressed in transfected cells; host or cells: Lenti-X 293T (LX293T, Clontech) stably expressing mutant YFP (H148Q/I152L) reporter
T1 sequence (P36544 with tags, fused parts or gaps Y151P/I152M/V154L/R155K/W156N/F159M/H163T): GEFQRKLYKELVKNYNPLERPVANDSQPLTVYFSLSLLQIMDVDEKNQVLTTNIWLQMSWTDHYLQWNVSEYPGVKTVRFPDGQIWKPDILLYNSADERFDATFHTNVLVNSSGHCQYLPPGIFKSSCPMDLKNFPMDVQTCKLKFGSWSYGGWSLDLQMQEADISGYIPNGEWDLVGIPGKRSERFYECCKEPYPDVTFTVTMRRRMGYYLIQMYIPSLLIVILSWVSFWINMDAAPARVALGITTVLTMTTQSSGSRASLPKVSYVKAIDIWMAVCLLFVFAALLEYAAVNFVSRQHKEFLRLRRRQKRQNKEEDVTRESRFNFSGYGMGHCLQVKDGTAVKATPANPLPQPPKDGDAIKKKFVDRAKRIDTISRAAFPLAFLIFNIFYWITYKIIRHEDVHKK

[2] = tested on: rat model of neuropathic pain; assay: Spared nerve injury (SNI) rat model of neuropathic pain, mechanical withdrawal threshold; assay type: in vivo; conditions: SNI rats injected with AAV.hSYN encoding engineered receptor; repeat IP injection on the third day
Description: The engineered receptors disclosed herein are assessed for their ability to provide analgesia in a rat model of neuropathic pain following administration of a small molecule ligand. AAV expression cassettes containing a human synapsin-1 (hSYN) promoter linked to polynucleotides encoding either a wild type α7-nAChR, or any one of the engineered chimeric receptors disclosed herein are constructed using standard molecular biology techniques.
Behavioral experiments and pain models: To produce mechanical hypersensitivity in a model that mimics a neuropathic pain condition, the spared nerve injury (SNI) model (a validated model of mechanical allodynia) is used (Shields et al., 2003, The Journal of Pain, 4, 465-470). This model is produced by the sectioning of the common peroneal and the sural nerves and isolating the tibial branch. Mechanical withdrawal threshold is assessed by placing rats on an elevated wire-mesh grid and stimulating the plantar surface of the hind paw with von Frey filaments.
Effects of administration: This SNI model is produced by the sectioning of the common peroneal and the sural nerves and isolating the tibial branch of the rat. […] The duration that the rat spends on the rotarod is recorded, with a cut-off at 300 sec. […]

With `c1cnc2c(c1)C[C@@]1(CN3CCC1CC3)O2` [AZD-0328] the “Responsiveness (percent quench of YFP fluorescence) of cells expressing CODA1237 compared with cells expressing CODA71” value [1] was “more responsive” and the “Mechanical withdrawal thresholds (up-down method) after IP injection of ligand” value [2] was “recovery to non-injury baseline thresholds”.
